Measurements: ChEMBL document CHEMBL3774308, “KATching-Up on Small Molecule Modulators of Lysine Acetyltransferases” (J Med Chem, 2016)

Assays:
[1] = target: T1, Histone acetyltransferase p300 (Homo sapiens, UniProt Q09472); experiment: Inhibition of p300 (unknown origin) using N-terminal histone H4-20 peptide substrate incubated for 10 mins by liquid scintillation counting method in presence of [14C]acetyl-CoA
[2] = target: T2, Histone acetyltransferase KAT5 (Homo sapiens, UniProt Q92993); experiment: Inhibition of full length TIP60 (unknown origin) expressed in Escherichia coli using N-terminal histone H4-20 peptide substrate incubated for 10 mins by liquid scintillation counting method in presence of [3H]acetyl-CoA
Target sequence in this assay (Q92993 whole entry): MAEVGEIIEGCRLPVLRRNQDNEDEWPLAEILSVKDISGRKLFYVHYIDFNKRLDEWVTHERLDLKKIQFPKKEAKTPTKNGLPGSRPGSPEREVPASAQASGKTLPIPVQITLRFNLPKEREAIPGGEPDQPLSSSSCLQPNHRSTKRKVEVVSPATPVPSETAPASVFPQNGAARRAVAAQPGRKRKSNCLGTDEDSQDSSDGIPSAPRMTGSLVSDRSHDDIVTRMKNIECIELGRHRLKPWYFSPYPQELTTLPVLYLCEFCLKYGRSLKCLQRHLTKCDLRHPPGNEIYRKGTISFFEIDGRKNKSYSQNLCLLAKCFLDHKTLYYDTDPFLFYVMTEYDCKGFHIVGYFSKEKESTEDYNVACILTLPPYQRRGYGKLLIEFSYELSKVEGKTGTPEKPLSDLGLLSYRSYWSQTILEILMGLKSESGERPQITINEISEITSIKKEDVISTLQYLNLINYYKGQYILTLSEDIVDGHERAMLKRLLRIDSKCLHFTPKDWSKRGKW

[3] = target: T3, Histone acetyltransferase ESA1 (Saccharomyces cerevisiae (strain ATCC 204508 / S288c) (Baker's yeast), UniProt Q08649); experiment: Inhibition of yeast ESA1 using N-terminal histone H3 substrate by radiometric filter binding based […] in presence of [3H]acetyl-CoA
T3 sequence (Q08649 whole entry): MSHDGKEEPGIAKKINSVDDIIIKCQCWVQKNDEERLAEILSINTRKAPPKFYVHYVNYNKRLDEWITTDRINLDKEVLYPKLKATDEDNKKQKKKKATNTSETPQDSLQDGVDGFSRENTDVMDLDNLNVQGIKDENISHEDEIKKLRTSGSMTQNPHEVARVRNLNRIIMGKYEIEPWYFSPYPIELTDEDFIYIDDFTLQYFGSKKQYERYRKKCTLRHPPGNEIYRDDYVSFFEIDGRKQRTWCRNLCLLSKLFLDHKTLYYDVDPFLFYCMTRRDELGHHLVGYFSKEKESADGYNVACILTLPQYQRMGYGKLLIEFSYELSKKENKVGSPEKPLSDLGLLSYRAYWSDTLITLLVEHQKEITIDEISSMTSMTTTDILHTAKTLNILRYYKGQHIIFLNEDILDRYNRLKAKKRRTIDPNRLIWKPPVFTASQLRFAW

[4] = target: T4, Histone acetyltransferase KAT2B (Homo sapiens, UniProt Q92831); experiment: Inhibition of PCAF (unknown origin) using N-terminal histone H3-20 peptide substrate incubated for 3.5 mins by liquid scintillation counting method in presence of [3H]acetyl-CoA
Target sequence in this assay (Q92831 whole entry): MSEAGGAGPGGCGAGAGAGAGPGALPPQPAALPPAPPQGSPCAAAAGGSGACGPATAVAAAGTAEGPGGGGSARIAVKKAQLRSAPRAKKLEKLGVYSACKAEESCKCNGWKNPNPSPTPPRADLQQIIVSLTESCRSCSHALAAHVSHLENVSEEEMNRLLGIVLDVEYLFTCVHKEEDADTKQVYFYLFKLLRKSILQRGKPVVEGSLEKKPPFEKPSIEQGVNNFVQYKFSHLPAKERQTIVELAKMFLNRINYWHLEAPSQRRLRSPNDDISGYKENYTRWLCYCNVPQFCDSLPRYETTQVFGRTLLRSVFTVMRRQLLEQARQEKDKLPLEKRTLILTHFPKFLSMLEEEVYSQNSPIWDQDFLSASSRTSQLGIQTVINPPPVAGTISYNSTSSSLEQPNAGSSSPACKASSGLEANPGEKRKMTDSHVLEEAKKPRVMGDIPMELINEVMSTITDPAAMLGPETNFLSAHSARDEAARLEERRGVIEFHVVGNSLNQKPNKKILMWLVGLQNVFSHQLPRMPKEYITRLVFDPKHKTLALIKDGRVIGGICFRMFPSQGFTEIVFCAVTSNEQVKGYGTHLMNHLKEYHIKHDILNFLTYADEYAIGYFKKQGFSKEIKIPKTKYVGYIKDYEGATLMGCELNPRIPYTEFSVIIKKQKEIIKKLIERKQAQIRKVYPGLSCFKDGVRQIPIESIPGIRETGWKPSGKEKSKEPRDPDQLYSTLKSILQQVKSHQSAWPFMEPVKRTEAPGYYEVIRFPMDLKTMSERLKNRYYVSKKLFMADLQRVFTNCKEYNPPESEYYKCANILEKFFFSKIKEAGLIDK

CREB-binding protein [5] = target: T5, CREB-binding protein (Homo sapiens, UniProt Q92793); experiment: Inhibition of CBP (unknown origin) using N-terminal histone H3 substrate at 100 uM by radiometric filter binding based phenotypic screen in presence of [3H]acetyl-CoA relative to control
[6] = target: T2, Histone acetyltransferase KAT5; experiment: Inhibition of TIP60 (unknown origin) using N-terminal histone H3 substrate at 100 uM by […] in presence of [3H]acetyl-CoA relative to control
Target sequence in this assay (Q92993 whole entry, looked up): as the sequence (Q92993 whole entry) above

[7] = target: T1, Histone acetyltransferase p300; experiment: Inhibition of recombinant p300 catalytic domain (unknown origin) using N-terminal histone H3 substrate by orthogonal fluorescence assay in presence of [3H]acetyl-CoA
[8] = target: Histone acetyltransferase KAT7 (Homo sapiens) (UniProt O95251); experiment: Inhibition of HBO1 (unknown origin) using N-terminal histone H3 substrate at 100 uM by […] in presence of [3H]acetyl-CoA relative to control
[9] = target: T1, Histone acetyltransferase p300; experiment: Inhibition of recombinant p300 catalytic domain (unknown origin) using N-terminal histone H3 substrate by radiometric filter binding based phenotypic screen in presence of [3H]acetyl-CoA
[10] = target: T6, Histone acetyltransferase KAT2A (Homo sapiens, UniProt Q92830); experiment: Inhibition of GCN5 (unknown origin) using N-terminal histone H3 substrate by radiometric filter binding based phenotypic screen in presence of [3H]acetyl-CoA
Target sequence in this assay (Q92830 whole entry): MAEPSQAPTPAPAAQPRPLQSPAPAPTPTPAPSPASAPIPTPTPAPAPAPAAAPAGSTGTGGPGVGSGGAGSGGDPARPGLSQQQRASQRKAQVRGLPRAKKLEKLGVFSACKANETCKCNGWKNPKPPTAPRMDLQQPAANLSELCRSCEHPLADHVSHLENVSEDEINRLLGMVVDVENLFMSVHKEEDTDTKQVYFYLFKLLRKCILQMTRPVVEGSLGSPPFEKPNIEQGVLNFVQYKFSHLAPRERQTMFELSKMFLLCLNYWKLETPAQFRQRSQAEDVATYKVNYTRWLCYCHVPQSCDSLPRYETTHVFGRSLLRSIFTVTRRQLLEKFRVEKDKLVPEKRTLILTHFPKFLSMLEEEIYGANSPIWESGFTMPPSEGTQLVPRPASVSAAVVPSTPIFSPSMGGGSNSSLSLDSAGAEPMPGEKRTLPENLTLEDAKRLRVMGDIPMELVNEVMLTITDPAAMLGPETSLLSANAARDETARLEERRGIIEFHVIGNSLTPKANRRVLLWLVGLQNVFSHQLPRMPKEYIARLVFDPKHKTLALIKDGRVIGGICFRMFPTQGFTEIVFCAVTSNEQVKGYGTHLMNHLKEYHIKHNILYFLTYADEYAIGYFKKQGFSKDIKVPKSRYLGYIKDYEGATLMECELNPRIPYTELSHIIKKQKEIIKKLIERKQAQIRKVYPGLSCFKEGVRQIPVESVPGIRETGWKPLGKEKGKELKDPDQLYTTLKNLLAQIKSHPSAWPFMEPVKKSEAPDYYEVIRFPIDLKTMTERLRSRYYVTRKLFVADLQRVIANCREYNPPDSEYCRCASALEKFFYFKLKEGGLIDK

[11] = target: T4, Histone acetyltransferase KAT2B; experiment: Inhibition of PCAF (unknown origin) using N-terminal histone H3 substrate by radiometric filter binding based phenotypic screen in presence of [3H]acetyl-CoA
Target sequence in this assay (Q92831 whole entry): as the sequence (Q92831 whole entry) above

[12] = target: T4, Histone acetyltransferase KAT2B; experiment: Inhibition of full length recombinant human FLAG-tagged PCAF expressed in baculovirus expression system using histone substrate incubated for 10 mins by radiometric gel assay
Target sequence in this assay (Q92831 whole entry): as above

[13] = target: T1, Histone acetyltransferase p300; experiment: Inhibition of full length recombinant human FLAG-tagged p300 expressed in baculovirus expression system using histone substrate incubated for 10 mins by radiometric gel assay
[14] = target: Histone acetyltransferase KAT6A (Homo sapiens) (UniProt Q92794); experiment: Inhibition of human MOZ using histone H3 substrate at 10 uM incubated for 2 to 4 mins by SDS-PAGE based autoradiography in presence of [14C]acetyl-CoA relative to control
Saccharomyces cerevisiae [15] = experiment: Inhibition of yeast YJW458 TAP-tagged SAS2 expressed in Escherichia coli BL21-CodonPlus(DE3)-RIL cells using histone H3 as substrate at 10 uM incubated for 2 to 4 mins by SDS-PAGE based autoradiography in presence of [14C]acetyl-CoA relative to control
Saccharomyces cerevisiae [16] = experiment: Inhibition of yeast GCN5 using histone H3 substrate at 10 uM incubated for 2 to 4 mins by SDS-PAGE based autoradiography in presence of [14C]acetyl-CoA relative to control
[17] = target: T4, Histone acetyltransferase KAT2B; experiment: Inhibition of PCAF (unknown origin) using H4-15 peptide substrate at 10 uM incubated for 10 mins by radiometric filter binding assay in presence of [14C]acetyl-CoA relative to control
Target sequence in this assay (Q92831 whole entry, looked up): as the sequence (Q92831 whole entry) above

Saccharomyces cerevisiae [18] = experiment: Inhibition of yeast RTT109 using histone H3 substrate at 10 uM incubated for 2 to 4 mins by SDS-PAGE based autoradiography in presence of [14C]acetyl-CoA relative to control
[19] = target: T2, Histone acetyltransferase KAT5; experiment: Inhibition of recombinant human GFP-tagged TIP60 expressed in chicken embryo DT40 cells using histone substrate at 500 uM incubated for 1 hr followed by ionizing radiation treatment by immunosorbent gel assay relative to control; type: cell-based
Target sequence in this assay (Q92993 whole entry, looked up): as the sequence (Q92993 whole entry) above

[20] = target: T6, Histone acetyltransferase KAT2A; experiment: Inhibition of recombinant human GCN5 catalytic domain (497 to 663 residues) expressed in Escherichia coli using histone H3 (5 to 23 residues) as substrate at 800 uM after 1 hr by liquid scintillation counting method in presence of [3H]acetyl-CoA relative to control
[21] = target: T4, Histone acetyltransferase KAT2B; experiment: Inhibition of recombinant human PCAF catalytic domain (492 to 658 residues) expressed in Escherichia coli using histone H3 (5 to 23 residues) as substrate at 800 uM after 1 hr by liquid scintillation counting method in presence of [3H]acetyl-CoA relative to control
Target sequence in this assay (Q92831 whole entry, looked up): as the sequence (Q92831 whole entry) above

CREB-binding protein [22] = target: T5, CREB-binding protein; experiment: Inhibition of recombinant GST-tagged CBP (unknown origin) using histone H4 peptide substrate assessed as reduction in NADH formation by spectrophotometric analysis
[23] = target: T2, Histone acetyltransferase KAT5; experiment: Inhibition of recombinant TIP60 (unknown origin) using histone H4 peptide substrate assessed as reduction in NADH formation by spectrophotometric analysis
Target sequence in this assay (Q92993 whole entry): as the sequence (Q92993 whole entry) above

[24] = target: T1, Histone acetyltransferase p300; experiment: Inhibition of recombinant GST-tagged p300 (unknown origin) using histone H4 peptide substrate assessed as reduction in NADH formation by spectrophotometric analysis
[25] = target: T4, Histone acetyltransferase KAT2B; experiment: Inhibition of recombinant PCAF (unknown origin) using histone H4 peptide substrate assessed as reduction in NADH formation by spectrophotometric analysis
Target sequence in this assay (Q92831 whole entry): as the sequence (Q92831 whole entry) above

[26] = target: T1, Histone acetyltransferase p300; experiment: Inhibition of recombinant full length p300 (unknown origin) using N-terminal H4-20 peptide substrate incubated for 7 mins by radiometric gel assay in presence of [14C]acetyl-CoA
[27] = target: T1, Histone acetyltransferase p300; experiment: Inhibition of human recombinant C-terminal GST-tagged p300 (1195 to 1673 residues) expressed in competent Escherichia coli DH5alpha cells using histone substrate after 30 mins by scintillation counting method in presence of [3H]acetyl-CoA
[28] = target: T1, Histone acetyltransferase p300; experiment: Inhibition of human recombinant p300 catalytic domain (1284 to 1673 residues) expressed in Escherichia coli using H4-8 peptide substrate by radiometric assay in presence of [3H]acetyl-CoA
[29] = target: T1, Histone acetyltransferase p300; experiment: Inhibition of full length recombinant human His6-tagged p300 expressed in baculovirus infected Sf21 cells using N-terminal H3 peptide substrate after 10 mins by radiometric filter binding assay in presence of [3H]acetyl-CoA

T1 sequence (Q09472 whole entry): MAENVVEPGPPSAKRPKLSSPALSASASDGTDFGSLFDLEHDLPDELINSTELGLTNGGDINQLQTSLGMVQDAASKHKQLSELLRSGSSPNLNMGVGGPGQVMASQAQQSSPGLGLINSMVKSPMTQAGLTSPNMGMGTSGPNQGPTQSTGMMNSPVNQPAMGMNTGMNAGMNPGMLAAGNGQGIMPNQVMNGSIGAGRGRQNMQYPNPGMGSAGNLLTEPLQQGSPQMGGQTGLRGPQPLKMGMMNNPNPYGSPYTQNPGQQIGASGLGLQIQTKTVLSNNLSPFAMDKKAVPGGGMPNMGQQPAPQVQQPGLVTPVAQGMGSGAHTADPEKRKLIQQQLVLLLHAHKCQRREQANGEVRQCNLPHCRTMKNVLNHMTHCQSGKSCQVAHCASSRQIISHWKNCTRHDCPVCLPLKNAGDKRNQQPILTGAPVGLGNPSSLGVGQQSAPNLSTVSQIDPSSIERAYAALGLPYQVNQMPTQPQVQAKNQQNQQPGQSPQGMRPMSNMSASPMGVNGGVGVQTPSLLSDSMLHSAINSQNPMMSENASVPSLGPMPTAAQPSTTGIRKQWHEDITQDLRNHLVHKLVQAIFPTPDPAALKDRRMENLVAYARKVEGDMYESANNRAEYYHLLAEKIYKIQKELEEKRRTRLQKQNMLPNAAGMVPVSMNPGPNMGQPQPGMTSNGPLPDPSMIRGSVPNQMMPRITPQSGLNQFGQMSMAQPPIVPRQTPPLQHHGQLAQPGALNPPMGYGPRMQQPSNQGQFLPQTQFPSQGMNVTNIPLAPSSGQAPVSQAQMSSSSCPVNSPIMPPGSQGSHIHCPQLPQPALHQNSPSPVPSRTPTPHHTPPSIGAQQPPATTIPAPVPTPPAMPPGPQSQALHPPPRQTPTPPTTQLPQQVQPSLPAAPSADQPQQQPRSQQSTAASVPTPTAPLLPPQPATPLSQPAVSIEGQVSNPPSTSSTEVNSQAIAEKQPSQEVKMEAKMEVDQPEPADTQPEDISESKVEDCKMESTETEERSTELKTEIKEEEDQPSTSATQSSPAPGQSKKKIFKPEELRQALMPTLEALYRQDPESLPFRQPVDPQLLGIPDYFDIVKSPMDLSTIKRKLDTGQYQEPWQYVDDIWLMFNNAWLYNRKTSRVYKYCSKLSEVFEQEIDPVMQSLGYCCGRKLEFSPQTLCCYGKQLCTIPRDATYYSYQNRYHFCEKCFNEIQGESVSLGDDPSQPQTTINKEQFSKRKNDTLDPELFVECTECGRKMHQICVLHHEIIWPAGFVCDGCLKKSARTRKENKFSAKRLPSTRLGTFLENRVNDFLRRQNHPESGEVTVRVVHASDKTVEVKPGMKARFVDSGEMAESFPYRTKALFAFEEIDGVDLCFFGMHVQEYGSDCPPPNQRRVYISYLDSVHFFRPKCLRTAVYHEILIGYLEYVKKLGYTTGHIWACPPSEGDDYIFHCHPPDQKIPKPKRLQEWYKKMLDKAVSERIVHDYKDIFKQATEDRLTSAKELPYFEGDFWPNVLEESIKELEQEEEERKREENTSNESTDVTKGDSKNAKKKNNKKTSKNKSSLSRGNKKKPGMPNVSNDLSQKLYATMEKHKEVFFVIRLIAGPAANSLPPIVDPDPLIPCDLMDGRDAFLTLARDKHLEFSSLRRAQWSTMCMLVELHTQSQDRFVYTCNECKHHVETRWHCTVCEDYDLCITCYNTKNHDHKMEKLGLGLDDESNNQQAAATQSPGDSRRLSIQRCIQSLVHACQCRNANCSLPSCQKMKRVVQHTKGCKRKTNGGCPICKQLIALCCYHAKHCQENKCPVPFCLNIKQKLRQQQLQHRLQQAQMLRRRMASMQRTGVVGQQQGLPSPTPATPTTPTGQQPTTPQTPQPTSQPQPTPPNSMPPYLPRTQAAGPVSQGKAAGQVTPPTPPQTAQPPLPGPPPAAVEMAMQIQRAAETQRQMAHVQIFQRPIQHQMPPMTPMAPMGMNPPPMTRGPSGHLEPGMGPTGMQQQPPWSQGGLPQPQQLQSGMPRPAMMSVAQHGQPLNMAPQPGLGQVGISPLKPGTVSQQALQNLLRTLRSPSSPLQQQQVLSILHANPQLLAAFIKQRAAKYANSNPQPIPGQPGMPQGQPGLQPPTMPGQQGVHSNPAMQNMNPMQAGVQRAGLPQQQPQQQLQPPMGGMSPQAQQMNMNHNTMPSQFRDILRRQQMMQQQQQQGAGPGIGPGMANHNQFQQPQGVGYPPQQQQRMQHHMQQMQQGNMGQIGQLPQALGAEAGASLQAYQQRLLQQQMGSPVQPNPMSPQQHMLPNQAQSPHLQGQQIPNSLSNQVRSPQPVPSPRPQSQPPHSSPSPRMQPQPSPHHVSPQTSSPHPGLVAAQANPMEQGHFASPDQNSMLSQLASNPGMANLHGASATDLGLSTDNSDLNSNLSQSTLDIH

## COc1ccc(C2CC(c3cccs3)=NN2c2nc(-c3ccc(N4C(=O)c5ccccc5C4=O)cc3)cs2)cc1OC (stereo unspecified)
[1]
  IC50: 150 µM
[2]
  IC50: 149 µM
[3]
  IC50: 190 µM
[4]
  IC50: > 100 µM

## COc1ccc(S(=O)(=O)ON=C2C=C(C)C(=O)C(C)=C2)cc1
CREB-binding protein [5]
  inhibition: 32%
[6]
  inhibition: 2%
[7]
  IC50: 1.98 µM
[8]
  inhibition: 1%
[9]
  IC50: 128 µM
[10]
  IC50: 33.9 µM
[11]
  IC50: 34.7 µM

## CNC(=O)[C@H](C)NC(=O)[C@H](CCCNC(=N)N)NC(=O)[C@@H](NC(=O)[C@H](CCCCN)NC(=O)[C@H](CCC(N)=O)NC(=O)[C@@H](NC(=O)[C@H](C)NC(=O)[C@H](CCCNC(=N)N)NC(=O)[C@H](CC(C)C)NC(=O)[C@H](CO)NC(=O)[C@@H](NC(=O)CNC(=O)CNC(=O)N[C@H](CCCCNC(=O)CSCCNC(=O)CCNC(=O)[C@@H](O)C(C)(C)COP(=O)(O)OP(=O)(O)OC[C@@H]1O[C@H](n2cnc3c(N)ncnc32)[C@@H](O)[C@H]1OP(=O)(O)O)C(=O)N[C@@H](C)C(=O)N1CCC[C@@H]1C(=O)N[C@H](CCCNC(=N)N)C(=O)N[C@H](CCCCN)C(=O)N[C@H](CCC(N)=O)C(=O)N[C@@H](CC(C)C)C(=O)O)[C@H](C)O)[C@H](C)O)[C@H](C)O
[12]
  IC50: 0.3 µM
[13]
  IC50: 200 µM

## CC1=NN(c2ccc(C(=O)O)cc2)C(=O)/C1=C\c1ccc(-c2cc(C)c(C)cc2[N+](=O)[O-])o1
[14]
  inhibition: < 10%
Saccharomyces cerevisiae [15]
  inhibition: < 10%
Saccharomyces cerevisiae [16]
  inhibition: < 10%
[17]
  inhibition: < 10%
Saccharomyces cerevisiae [18]
  inhibition: < 10%

## O=C(O)Cn1nnc(-c2ccc(CN(CCCCOc3ccc(CN4CCCC4)cc3)CCc3ccccc3)cc2)n1
[19]
  inhibition: 60%

## CC1CC/C(=N/Nc2nc(-c3ccc(Cl)cc3)cs2)C1 (stereo unspecified)
[20]
  inhibition: 40%
[21]
  inhibition: 40%

## O=C(O[C@@H]1Cc2c(O)cc(O)cc2O[C@@H]1c1cc(O)c(O)c(O)c1)c1cc(O)c(O)c(O)c1 [EPIGALOCATECHIN GALLATE]
CREB-binding protein [22]
  IC50: 50 µM
[23]
  IC50: 70 µM
[24]
  IC50: 30 µM
[25]
  IC50: 60 µM

## CC(=O)N[C@@H](CCCCNC(=O)CSCCNC(=O)CCNC(=O)[C@H](O)C(C)(C)COP(=O)(O)OP(=O)(O)OC[C@H]1O[C@@H](n2cnc3c(N)ncnc32)[C@H](O)[C@@H]1OP(=O)(O)O)C(N)=O
[12]
  IC50: 200 µM
[13]
  IC50: 0.5 µM
[26]
  IC50: 0.05 µM
[27]
  IC50: 0.0032 µM

## CC(C)(C)OC(=O)NCCCCCNC(=O)CSCCNC(=O)CCNC(=O)[C@H](O)C(C)(C)COP(=O)(O)OP(=O)(O)OC[C@H]1O[C@@H](n2cnc3c(N)ncnc32)[C@H](O)[C@@H]1OP(=O)(O)O
[28]
  IC50: 0.07 µM

## C=C(C)[C@@H](/C=C/C(C)C)C[C@@]12C[C@@H](/C=C\C(C)C)C(C)(C)[C@@](CC=C(C)C)(C(=O)C(C(=O)c3ccc(O)c(O)c3)=C1O)C2=O
[29]
  IC50: 7 µM
